Experimental data taken from EP3057950B1, “PHENYL LINKED QUINOLINYL MODULATORS OF ROR-GAMMA-T” (Janssen Pharmaceutica NV, priority 2013, dated 2015).
Values joined by “and” are separate entries in the source; they are usually repeats but may differ in a detail not shown here. Equal values may be shown once. Where a name gives a salt, the structure may show the parent alone.

What was measured:
[1] = target: T1, wild type human RORγt ligand binding domain (RORγt LBD) (Homo sapiens, UniProt P51449); assay: RORγt ThermoFluor® Assay (thermal shift, binding affinity); conditions: pH 7.0, estimated from concentration response curves
T1 construct: His-tag (N); TurboTEV protease cleavage site (ENLYFQG) (N); made in house; host or cells: E. coli (pHIS1, modified pET expression vector)
T1 sequence (P51449 269-508 limits assumed): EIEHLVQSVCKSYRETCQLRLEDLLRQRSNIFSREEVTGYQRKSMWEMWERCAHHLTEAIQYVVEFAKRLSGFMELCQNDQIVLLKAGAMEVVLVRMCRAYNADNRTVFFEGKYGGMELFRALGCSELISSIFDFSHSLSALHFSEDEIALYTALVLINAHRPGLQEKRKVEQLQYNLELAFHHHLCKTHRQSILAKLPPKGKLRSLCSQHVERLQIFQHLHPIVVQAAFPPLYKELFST
Experimental: This approach is applicable to a wide variety of systems, and rigorous in theoretical interpretation through quantitation of equilibrium binding constants (KD).
The shift in the melting point described as a ΔTm is proportional to the concentration and affinity of the ligand.
Protein and compound solutions are dispensed into black 384-well polypropylene PCR microplates (Abgene) and overlayed with silicone oil (1 µL, Fluka, type DC 200) to prevent evaporation.
Bar-coded assay plates are robotically loaded onto a thermostatically controlled PCR-type thermal block and then heated at a typical ramp-rate of 1 °C/min for all experiments. Fluorescence was measured by continuous illumination with UV light (Hamamatsu LC6) supplied via fiber optic and filtered through a band-pass filter (380-400 nm; >6 OD cutoff). Fluorescence emission of the entire 384-well plate was detected by measuring light intensity using a CCD camera (Sensys, Roper Scientific) filtered to detect 500 ± 25 nm, resulting in simultaneous and independent readings of all 384 wells. Images were collected at each temperature, and the sum of the pixel intensity in a given area of the assay plate was recorded versus temperature. Reference wells contained RORγt without compounds, and the assay conditions were as follows: • 0.065 mg/mL RORγt • 60 µM 1,8-ANS • 100 mM Hepes, pH 7.0 • 10 mM NaCl • 2.5 mM GSH • 0.002% Tween-20
Project compounds were arranged in a pre-dosed mother plate (Greiner Bio-one) wherein compounds are serially diluted in 100% DMSO by 1:2 from a high concentration of 10 mM over 12 columns within a series (column 12 is a reference well containing DMSO, no compound). The compounds were robotically dispensed directly into assay plates (1x = 46 nL) using a Hummingbird capillary liquid handling instrument (Digilab). Following compound dispense, protein and dye in buffer was added to achieve the final assay volume of 3 µL, followed by 1 µL of silicone oil.

[2] = target: T2, wild type human RORγt LBD (Homo sapiens, UniProt P51449); assay: RORγt Reporter Assay (GAL4-RORγt LBD luciferase in HEK293T cells); assay type: cell-based; conditions: HEK293T cells; for IC50: compounds for 24 hours, read-out: RORγt reporter Assay, IC50; for inhibition at 6 µM: HEK-293T, read-out: RORγt reporter Assay, % inhibition @ 6 µM, @ 6 µM
T2 construct: expressed in transfected cells; host or cells: HEK293T
T2 sequence (P51449 269-508 limits assumed): T1 sequence (P51449 269-508 limits assumed)
Text: A reporter assay was used to test functional activity of RORγt modulatory compounds on transcriptional activation driven by the RORγt LBD. Cells used in the assay were co-transfected with two constructs. The first construct, pBIND-RORγt LBD, contained the wild type human RORγt LBD fused to the DNA binding domain of the GAL4 protein. The second construct, pGL4.31 (Promega Cat no. C935A), contained multiple GAL4 responsive DNA elements upstream of firefly luciferase. […] The mutant construct was called pBIND-RORγt-AF2.
The pBIND vector contains the GAL4 DNA Binding Domain (GAL4 DBD) and the renilla luciferase gene under control of the SV40 promoter. Renilla luciferase expression serves as a control for transfection efficiency and cell viability.
The reporter assay was performed by transiently transfecting HEK293T cells with 5 µg of pBIND-RORγt LBD or pBIND-RORγt LBD-AF2 and 5 µg pGL4.31 (Promega Cat no. C935A) using Fugene 6 (Invitrogen Cat no. E2691) at a 1:6 ratio of DNA: Fugene 6 in a T-75 flask in which cells were at least 80% confluent. Twenty four hours after bulk transfection, cells were plated into 96-well plates at 50,000 cells/well in phenol-red free DMEM containing 5% Lipid Reduced FCS and Pen/Strep. Six hours after plating, cells were treated with compounds for 24 hours. Media was removed and cells were lysed with 50 µL 1x Glo Lysis Buffer (Promega). Dual Glo Luciferase Reagent (50 µL/well) was then added and firefly luciferase luminescence was read on an Envision after a ten minute incubation. Finally, Stop and Glo reagent (50 µL/well) was added and renilla luciferase luminescence was read on an Envision instrument after a ten minute incubation. To calculate the effect of compounds on RORγt activity, the ratio of firefly to renilla luciferase was determined and plotted against compound concentration. Agonist compounds increase RORγt-driven luciferase expression, and antagonist or inverse agonist compounds decrease luciferase expression.

Structure (SMILES) | Kd [1] [nM] | IC50 [2] | inhibition at 6 µM [2] [%] | RORγt reporter Assay, % inhibition @ 6 µM ([2]; @ 6 µM) [%]
CNCCN(C)c1nc2ccc(C(O)(c3ccncc3)c3cncn3C)cc2c(Cl)c1-c1ccccc1 (centres unmarked) [Example 82] | 11000 | > 6000 nM | 18 | –
CON(C)c1nc2ccc(C(O)(c3ccc(C(F)(F)F)nc3)c3cncn3C)cc2c(Cl)c1-c1ccccc1 (centres unmarked) [Example 56, {4-Chloro-2-[methoxy(methyl)amino]-3-phenylquinolin-6-yl}(1-methyl-1H-imidazol-5-yl)[6-(trifluoromethyl)pyridin-3-yl]methanol] | 60 | 23 nM | 102 | –
N#Cc1nc2ccc(C(O)(c3cccc(Cl)c3)c3ccnc(C(F)(F)F)c3)cc2c(C#N)c1-c1ccccc1 (centres unmarked) [Example 76, 6-((3-Chlorophenyl)(hydroxy)(2-(trifluoromethyl)pyridin4-yl)methyl)-3-phenylquinoline-2,4-dicarbonitrile] | 18000 | ~2000 nM | 80 | –
COc1nc2ccc(C(O)(c3cnnn3C)c3cnc(C)n3C)cc2c(Cl)c1-c1ccccc1 (centres unmarked) [Example 41a, (4-Chloro-2-methoxy-3-phenylquinolin-6-yl)(1,2-dimethyl-1H-imidazol-5-yl)(1-methyl-1H-1,2,3-triazol-5-yl)methanol•TFA] | 89 | 320 nM | 98 | –
COc1c(-c2ccccc2)c(Cl)nc2ccc(C(O)(c3sc(C)nc3C)c3cnnn3C)cc12 (centres unmarked) [Example 36] | 0.89 | 11 nM and ~40 nM | 97 | –
CN1CCC(C(O)(c2cccnc2)c2ccc3nc(Cl)c(-c4ccccc4)c(Cl)c3c2)CC1 (centres unmarked) [Example 78, (2,4-Dichloro-3-phenylquinolin-6-yl)(1-methylpiperidin4-yl)(pyridin-3-yl)methanol•TFA] | 14000 | > 6000 nM | 33 | –
COc1nc2ccc(C(O)(c3ccc(C(F)(F)F)nc3)c3cncn3C)cc2c(Cl)c1-c1cnn(C)c1 (centres unmarked) [Example 8, [4-Chloro-2-methoxy-3-(1-methyl-1H-pyrazol-4-yl)quinolin-6-yl](1-methyl-1H-imidazol-5-yl)[6-(trifluoromethyl)pyridin-3-yl]methanol•TFA] | 270 | 890 nM | 87 | –
CN(C)c1nc2ccc(C(c3ccc(Cl)cc3)c3cncn3C)cc2c(Cl)c1-c1ccccc1 (centres unmarked) [Example 71, 4-Chloro-6-((4-chlorophenyl)(1-methyl-1H-imidazol-5-yl)methyl)-N,N-dimethyl-3-phenylquinolin-2-amine] | 2200 | 1400 nM | 84 | –
COc1c(-c2ccccc2)c(C(F)(F)F)nc2ccc(C(O)(c3ccc(Cl)cc3)c3cncn3C)cc12 (centres unmarked) [Example 33a, (4-Chlorophenyl)(4-methoxy-3-phenyl-2-(trifluoromethyl)quinolin-6-yl)(1-methyl-1H-imidazol-5-yl)methanol•TFA] | 160 | 650 nM | 98 | –
COc1nc2ccc(C(O)(c3sc(C)nc3C)c3cnnn3C)cc2c(Cl)c1-c1ccccc1 (centres unmarked) [Example 35, (4-Chloro-2-methoxy-3-phenylquinolin-6-yl)(2,4-dimethylthiazol-5-yl)(1-methyl-1H-1,2,3-triazol-5-yl)methnol•TFA] | 18 | 160 nM | 101 | –
COc1nc2ccc(C(O)(c3ncccn3)c3cncn3C)cc2c(OC)c1-c1ccccc1 (centres unmarked) [Example 88, (2,4-Dimethoxy-3-phenylquinolin-6-yl)(1-methyl-1H-imidazol-5-yl)(pyrimidin-2-yl)methanol] | 20000 | > 6000 nM | 32 | –
CC(C)Oc1nc2ccc(C(O)(c3cccnc3)c3cccc(Cl)c3)cc2cc1-c1ccccc1 (centres unmarked) [Example 79, (3-Chlorophenyl)(2-isopropoxy-3-phenylquinolin-6-yl)(pyridin-3-yl)methanol•TFA] | 17000 | – | – | –
CON(C)c1nc2ccc(C(O)(c3ccc(Cl)cc3)c3cncn3C)cc2c(N(C)OC)c1-c1ccccc1 (centres unmarked) [Example 59, {2,4-Bis[methoxy(methyl)amino]-3-phenylquinolin-6-yl}(4-chlorophenyl)(1-methyl-1H-imidazol-5-yl)methanol] | – | – | 98 | –

Further lines, results first:

Kd [1] [nM] | IC50 [2] | inhibition at 6 µM [2] [%] | RORγt reporter Assay, % inhibition @ 6 µM ([2]; @ 6 µM) [%] | Structure (SMILES)
26 | 530 nM | 87 | – | COc1nc2ccc(C(O)(c3ccc(C(F)(F)F)nc3)c3cncn3C)cc2c(Cl)c1-c1ccc(NS(C)(=O)=O)cc1 (centres unmarked) [Example 17, N-[4-(4-Chloro-6-{hydroxy(1-methyl-1H-imidazol-5-yl)[6-(trifluoromethyl)pyridin-3-yl]methyl}-2-methoxyquinolin-3-yl)phenyl]methamesulfonamide•TFA]
9.3 | > 6000 nM | 26 | – | COc1nc2c(C)cc(C(O)(c3ccc(C(F)(F)F)nc3)c3cncn3C)cc2c(Cl)c1-c1ccc(OC(F)(F)F)cc1 (centres unmarked) [Example 63, (4-Chloro-2-methoxy-8-methyl-3-(4-(trifluoromethoxy)phenyl)quinolin-6-yl)(1-methyl-1H-imidazol-5-yl)(6-(trifluoromethyl)pyridin-3-yl)methanol]
17 | > 6000 nM | – | 35 | COc1nc2c(C)cc(C(O)(c3ccc(C(F)(F)F)nc3)c3cncn3C)cc2c(C#N)c1-c1ccc(OC(F)(F)F)cc1 (single isomer, unassigned) [Example 19c, 6-(Hydroxy(1-methyl-1H-imidazol-5-yl)(6-(trifluoromethyl)pyridin-3-yl)methyl)-2-methoxy-8-methyl-3-(4-(trifluoromethoxy)phenyl)quinoline-4-carbonitrile]
– | – | 97 | – | COc1c(-c2ccccc2)c(Cl)nc2ccc(C(O)(c3cnnn3C)c3cnc(C)n3C)cc12 (single isomer, unassigned) [Example 40b, (2-Chloro-4-metboxy-3-phenylquinolin-6-yl)(1,2-dimethyl-1H-imidazol-5-yl)(1-methyl-1H-1,2,3-triazol-5-yl)methanol]
17000 | 3500 nM | 93 | – | CN(C)c1nc2ccc(C(O)(c3ccncc3)c3ccccn3)cc2c(Cl)c1-c1ccccc1 (centres unmarked) [Example 84, (4-Chloro-2-(dimethylamino)-3-phenylquinolin-6-yl)(pyridin-2-yl)(pyridin4-yl)methanol•TFA]
14000 | – | – | – | CCOc1nc2ccc(C(O)(c3cccnc3)c3cccc(Cl)c3)cc2c(OCC)c1-c1ccccc1 (centres unmarked) [Example 81, (3-Chlorophenyl)(2,4-diethoxy-3-phenylquinolin-6-yl)(pyridin-3-yl)methanol•TFA]
7.2 | – | – | – | COCCN(C)c1nc2ccc(C(O)(c3ccc(C(F)(F)F)nc3)c3cncn3C)cc2c(Cl)c1-c1ccccc1 (centres unmarked) [Example 53, {4-Chloro-2-[(2-methoxyethyl)(methyl)amino]-3-phenylquinolin-6-yl}(1-methyl-1H-imidazol-5-yl)[6-(trifluoromethyl)pyridin-3-yl]methanol]
